Assay results: ChEMBL document CHEMBL3045916, “Synthesis, characterization, biological evaluation and in silico screening of oxadiazinanones” (Med Chem Res, 2013)
In brackets after ≈: the same amount, converted by molar mass.

How the values were obtained:
[1] = tested on: Staphylococcus aureus; assay: Bactericidal activity against methicillin-resistant Staphylococcus aureus after 18 to 24 hr; format: functional
[2] = tested on: Talaromyces marneffei; assay: Antifungal activity against Talaromyces marneffei assessed as growth inhibition after 48 hr by agar disk diffusion method; format: functional
[3] = tested on: Aspergillus fumigatus; assay: Fungicidal activity against Aspergillus fumigatus after 48 hr; format: functional
[4] = tested on: Escherichia coli; assay: Bactericidal activity against Escherichia coli ATCC 25922 after 18 to 24 hr; format: functional
[5] = tested on: Aspergillus fumigatus; assay: Antifungal activity against Aspergillus fumigatus assessed as growth inhibition after 48 hr by macro-dilution method; format: functional
[6] = tested on: Klebsiella pneumoniae; assay: Antibacterial activity against Klebsiella pneumoniae clinical isolate assessed as growth inhibition after 24 hr by disk diffusion method; format: functional
[7] = tested on: Escherichia coli; assay: Antibacterial activity against Escherichia coli ATCC 25922 assessed as growth inhibition after 24 hr by disk diffusion method; format: functional
[8] = tested on: Trichophyton mentagrophytes; assay: Antifungal activity against Trichophyton mentagrophytes assessed as growth inhibition after 48 hr by macro-dilution method; format: functional
[9] = tested on: Pseudomonas aeruginosa; assay: Antibacterial activity against Pseudomonas aeruginosa ATCC 9029 assessed as growth inhibition after 24 hr by macro-dilution method; format: functional; details: ATCC 9029, 24 h
[10] = tested on: Streptococcus pyogenes; assay: Antibacterial activity against Streptococcus pyogenes clinical isolate assessed as growth inhibition after 24 hr by disk diffusion method; format: functional
[11] = tested on: Pseudomonas aeruginosa; assay: Bactericidal activity against Pseudomonas aeruginosa ATCC 9029 after 18 to 24 hr; format: functional
[12] = tested on: Candida albicans; assay: Fungicidal activity against Candida albicans ATCC 90028 after 48 hr; format: functional; details: ATCC 90028, 48 h
[13] = tested on: Trichophyton mentagrophytes; assay: Fungicidal activity against Trichophyton mentagrophytes after 48 hr; format: functional
[14] = tested on: Trichophyton mentagrophytes; assay: Antifungal activity against Trichophyton mentagrophytes assessed as growth inhibition after 48 hr by agar disk diffusion method; format: functional
[15] = tested on: Pseudomonas aeruginosa; assay: Antibacterial activity against Pseudomonas aeruginosa ATCC 9029 assessed as growth inhibition after 24 hr by disk diffusion method; format: functional
[16] = tested on: Staphylococcus aureus; assay: Antibacterial activity against methicillin-resistant Staphylococcus aureus assessed as growth inhibition after 24 hr by disk diffusion method; format: functional
[17] = tested on: Talaromyces marneffei; assay: Antifungal activity against Talaromyces marneffei assessed as growth inhibition after 48 hr by macro-dilution method; format: functional
[18] = tested on: Escherichia coli; assay: Antibacterial activity against Escherichia coli ATCC 8739 assessed as growth inhibition after 24 hr by macro-dilution method; details: ATCC 8739, 24 h
[19] = tested on: Klebsiella pneumoniae; assay: Bactericidal activity against Klebsiella pneumoniae clinical isolate after 18 to 24 hr; format: functional
[20] = tested on: Radical scavenging activity; assay: Antioxidant activity assessed as DPPH radical scavenging activity at 2 ug/mL after 30 min by spectrophotometric analysis relative to control; format: functional
[21] = tested on: Klebsiella pneumoniae; assay: Antibacterial activity against Klebsiella pneumoniae clinical isolate assessed as growth inhibition after 24 hr by macro-dilution method; format: functional
[22] = tested on: Radical scavenging activity; assay: Antioxidant activity assessed as DPPH radical scavenging activity at 6 ug/mL after 30 min by spectrophotometric analysis relative to control; format: functional
[23] = tested on: Radical scavenging activity; assay: Antioxidant activity assessed as DPPH radical scavenging activity at 4 ug/mL after 30 min by spectrophotometric analysis relative to control; format: functional
[24] = tested on: Radical scavenging activity; assay: Antioxidant activity assessed as DPPH radical scavenging activity at 10 ug/mL after 30 min by spectrophotometric analysis relative to control; format: functional
[25] = tested on: Radical scavenging activity; assay: Antioxidant activity assessed as DPPH radical scavenging activity at 8 ug/mL after 30 min by spectrophotometric analysis relative to control; format: functional
[26] = tested on: Staphylococcus aureus; assay: Antibacterial activity against methicillin-resistant Staphylococcus aureus assessed as growth inhibition after 24 hr by macro-dilution method; format: functional
[27] = tested on: Talaromyces marneffei; assay: Fungicidal activity against Talaromyces marneffei after 48 hr; format: functional
[28] = tested on: Aspergillus fumigatus; assay: Antifungal activity against Aspergillus fumigatus assessed as growth inhibition after 48 hr by agar disk diffusion method; format: functional
[29] = tested on: Radical scavenging activity; assay: Antioxidant activity assessed as DPPH radical scavenging activity after 30 min by spectrophotometric analysis; format: functional
[30] = tested on: Streptococcus pyogenes; assay: Bactericidal activity against Streptococcus pyogenes clinical isolate after 18 to 24 hr; format: functional
[31] = tested on: Candida albicans; assay: Antifungal activity against Candida albicans ATCC 90028 assessed as growth inhibition after 48 hr by agar disk diffusion method; format: functional
[32] = tested on: Streptococcus pyogenes; assay: Antibacterial activity against Streptococcus pyogenes clinical isolate assessed as growth inhibition after 24 hr by macro-dilution method; format: functional
[33] = tested on: Candida albicans; assay: Antifungal activity against Candida albicans ATCC 90028 assessed as growth inhibition after 48 hr by macro-dilution method; format: functional; details: ATCC 90028, 48 h

SMILES | MBC [1] | diameter of the inhibition zone (DIZ) [2] | MFC [3] | MBC [4] | MIC [5] | diameter of the inhibition zone (DIZ) [6] | diameter of the inhibition zone (DIZ) [7] | MIC [8] | MIC [9] | diameter of the inhibition zone (DIZ) [10] | MBC [11] | MFC [12] | MFC [13] | diameter of the inhibition zone (DIZ) [14] | diameter of the inhibition zone (DIZ) [15] | MIC [17] | MFC [27] | diameter of the inhibition zone (DIZ) [28] | diameter of the inhibition zone (DIZ) [31] | MIC [33] | also measured
CC1(c2ccccc2)NNC(=O)CO1 (stereo unspecified) | 50 µg/mL (≈ 260 µM) | 14.1 mm | 50 µg/mL (≈ 260 µM) | 50 µg/mL (≈ 260 µM) | 25 µg/mL (≈ 130 µM) | 14.1 mm | 17.4 mm | 25 µg/mL (≈ 130 µM) | 25 µg/mL (≈ 130 µM) | 19.1 mm | 100 µg/mL (≈ 520 µM) | 25 µg/mL (≈ 130 µM) | 50 µg/mL (≈ 260 µM) | 14.5 mm | 24.2 mm | 25 µg/mL (≈ 130 µM) | 100 µg/mL (≈ 520 µM) | 17.2 mm | 21.4 mm | 25 µg/mL (≈ 130 µM) | diameter of the inhibition zone (DIZ) [16]: 18.2 mm; MIC [18]: 25 µg/mL (≈ 130 µM); MBC [19]: 100 µg/mL (≈ 520 µM); Activity [20]: 9.86%; MIC [21]: 25 µg/mL (≈ 130 µM); Activity [22]: 34.8%; Activity [23]: 23.8%; Activity [24]: 59.5%; Activity [25]: 46.8%; MIC [26]: 25 µg/mL (≈ 130 µM); IC50 [29]: 8.25 µg/mL (≈ 42.9 µM); MBC [30]: 50 µg/mL (≈ 260 µM); MIC [32]: 25 µg/mL (≈ 130 µM)
CC1(c2ccc(O)cc2)NNC(=O)CO1 (stereo unspecified) | 50 µg/mL (≈ 240 µM) | 15.1 mm | 100 µg/mL (≈ 480 µM) | 100 µg/mL (≈ 480 µM) | 50 µg/mL (≈ 240 µM) | 14.6 mm | 18.4 mm | 25 µg/mL (≈ 120 µM) | 25 µg/mL (≈ 120 µM) | 19.3 mm | 100 µg/mL (≈ 480 µM) | 100 µg/mL (≈ 480 µM) | 50 µg/mL (≈ 240 µM) | 16.3 mm | 24.4 mm | 50 µg/mL (≈ 240 µM) | 100 µg/mL (≈ 480 µM) | 19.4 mm | 22.4 mm | 25 µg/mL (≈ 120 µM) | diameter of the inhibition zone (DIZ) [16]: 18.3 mm; MIC [18]: 50 µg/mL (≈ 240 µM); MBC [19]: 50 µg/mL (≈ 240 µM); Activity [20]: 11.9%; MIC [21]: 25 µg/mL (≈ 120 µM); Activity [22]: 37.2%; Activity [23]: 25.1%; Activity [24]: 62.4%; Activity [25]: 49%; MIC [26]: 25 µg/mL (≈ 120 µM); IC50 [29]: 8.02 µg/mL (≈ 38.5 µM); MBC [30]: 50 µg/mL (≈ 240 µM); MIC [32]: 25 µg/mL (≈ 120 µM)
CC1(c2cc(O)ccc2O)NNC(=O)CO1 (stereo unspecified) | 100 µg/mL (≈ 446 µM) | 11.7 mm | 100 µg/mL (≈ 446 µM) | 100 µg/mL (≈ 446 µM) | 50 µg/mL (≈ 223 µM) | 14.8 mm | 17.2 mm | 50 µg/mL (≈ 223 µM) | 50 µg/mL (≈ 223 µM) | 18.6 mm | 100 µg/mL (≈ 446 µM) | 100 µg/mL (≈ 446 µM) | 100 µg/mL (≈ 446 µM) | 14.8 mm | 24.1 mm | 50 µg/mL (≈ 223 µM) | 100 µg/mL (≈ 446 µM) | 16.8 mm | 21.4 mm | 50 µg/mL (≈ 223 µM) | diameter of the inhibition zone (DIZ) [16]: 17.6 mm; MIC [18]: 50 µg/mL (≈ 223 µM); MBC [19]: 100 µg/mL (≈ 446 µM); Activity [20]: 6.61%; MIC [21]: 50 µg/mL (≈ 223 µM); Activity [22]: 25.2%; Activity [23]: 18.7%; Activity [24]: 32.3%; Activity [25]: 30.3%; MIC [26]: 50 µg/mL (≈ 223 µM); IC50 [29]: 12.95 µg/mL (≈ 57.8 µM); MBC [30]: 100 µg/mL (≈ 446 µM); MIC [32]: 50 µg/mL (≈ 223 µM)
C[C@@H]1[C@H](O)[C@@H](C)/C=C/C=C/C=C/C=C/C=C/C=C/C=C/[C@H](O[C@@H]2O[C@H](C)[C@@H](O)[C@H](N)[C@@H]2O)C[C@@H]2O[C@](O)(C[C@@H](O)C[C@@H](O)[C@H](O)CC[C@@H](O)C[C@@H](O)CC(=O)O[C@H]1C)C[C@H](O)[C@H]2C(=O)O [AMPHOTERICIN B] |  | 21.5 mm | 25 µg/mL (≈ 27.1 µM) |  | 12.5 µg/mL (≈ 13.5 µM) |  |  | 6.25 µg/mL (≈ 6.76 µM) |  |  |  | 25 µg/mL (≈ 27.1 µM) | 25 µg/mL (≈ 27.1 µM) | 23.5 mm |  | 12.5 µg/mL (≈ 13.5 µM) | 25 µg/mL (≈ 27.1 µM) | 26.5 mm | 30.5 mm | 6.25 µg/mL (≈ 6.76 µM) | 
